From article PMC10094600, “Enzymatic Synthesis of 2-Chloropurine Arabinonucleosides with Chiral Amino Acid Amides at the C6 Position and an Evaluation of Antiproliferative Activity In Vitro” (International Journal of Molecular Sciences, 2023)

Target: T1, E. coli adenosine deaminase (Escherichia coli, UniProt P22333)
T1 construct: gene add; recombinant
T1 sequence (P22333 1-333): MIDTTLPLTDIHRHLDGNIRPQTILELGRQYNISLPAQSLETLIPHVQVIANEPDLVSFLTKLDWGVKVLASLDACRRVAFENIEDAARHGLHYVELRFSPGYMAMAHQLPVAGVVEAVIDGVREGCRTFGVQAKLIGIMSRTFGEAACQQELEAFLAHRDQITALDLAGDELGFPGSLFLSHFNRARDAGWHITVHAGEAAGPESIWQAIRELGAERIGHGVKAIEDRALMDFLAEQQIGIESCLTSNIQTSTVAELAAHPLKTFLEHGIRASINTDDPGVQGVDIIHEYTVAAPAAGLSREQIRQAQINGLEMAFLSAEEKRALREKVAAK
Test: inhibition of adenosine deamination, HPLC, Lineweaver-Burk
Assay type: biochemical

Question: With NC(=O)[C@H](CO)Nc1nc(Cl)nc2c1ncn2[C@@H]1O[C@H](CO)[C@@H](O)[C@@H]1O [4b, 9-β-D-Arabinofuranosyl-2-chloro-6-(N^α-L-serinylamido)-purine] as the compound, how does the Ki read?
Answer: 1200 ± 200 µM

Question: Nc1nc(Cl)nc2c1ncn2[C@@H]1O[C@H](CO)[C@@H](O)[C@H]1O [compound 15, 2-chloradenosine] was tested. Which Ki did it give?
Answer: 78 ± 12 µM

Question: How did the Ki turn out when Nc1nc(Cl)nc2c1ncn2[C@@H]1O[C@H](CO)[C@@H](O)[C@@H]1O [compound 16, 6-Amino-2-chloro-9-beta-D-arabinofuranosyl-9H-purine] was run?
Answer: 130 ± 20 µM
